For 25 compounds, EC50 results are on record in patent US7906655B2, “Hepatitis C virus inhibitors” (Bristol-Myers Squibb Company, priority 2008, dated 2011).

Where only a bound is given, the exact number is not on record here.

One assay concerns HCV 1b genotype. The assay can be described thus: HCV Replicon assay (HCV-neo replicon cells, wild-type). Format: cell-based. The conditions noted are these: HCV 1b genotype replicon; class symbols. Put shortly:
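Assay used wild-type HCV genotype 1b replicon cells carrying neo, with luciferase reporter read-outs in some formats.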
(A replicon is a self-replicating genome or part of one, used to study replication in cells.)
In the case of `COc1ccc(C)cc1C(=O)N1CCC[C@H]1c1nc2ccc(C#Cc3ccc4[nH]c([C@@H]5CCCN5C(=O)[C@H]5CCCO5)nc4c3)cc2[nH]1` [Example M54.14, 5-((2S-((2S)-1-(2-methoxy-5-methylbenzoyl)-2-pyrrolidinyl)-1H-benzimidazol-6-yl)ethynyl)-2-((2S)-1-((2R)-tetrahydro-2-furanylcarbonyl)-2-pyrrolidinyl)-1H-benzimidazole], the half-maximal effective concentration (EC50) (in general, the midpoint of the concentration-response curve) lay within 100 to 999 nM. As to `CC(=O)N1CCC[C@H]1c1nc2ccc(C#Cc3ccc4[nH]c([C@@H]5CCCN5C(=O)Cc5ccccn5)nc4c3)cc2[nH]1` [Example M54.20, 5-((2-((2S)-1-acetyl-2-pyrrolidinyl)-1H-benzimidazol-6-yl)ethynyl)-2-((2S)-1-(2-pyridinylacetyl)-2-pyrrolidinyl)-1H-benzimidazole], the EC50 was in the range of 4.57 to 99 nM.

The same assay, now with this note: Hepatitis C virus, HCV 1b genotype replicon; class symbols.
For the compound `CCCOc1ccccc1C(=O)N1CCC[C@H]1c1nc2ccc(C#Cc3ccc4[nH]c([C@@H]5CCCN5C(=O)[C@H]5CCCO5)nc4c3)cc2[nH]1` [Example M54.12, 5-((2-((2S)-1-(2-propoxybenzoyl)-2-pyrrolidinyl)-1H-benzimidazol-6-yl)ethynyl)-2-((2S)-1-((2R)-tetrahydro-2-furanylcarbonyl)-2-pyrrolidinyl)-1H-benzimidazole], the EC50 was in the range of 100 to 999 nM. `O=C(c1ccccc1NCc1ccccc1)N1CCC[C@H]1c1nc2cc(C#Cc3ccc4[nH]c([C@@H]5CCCN5C(=O)[C@H]5CCCO5)nc4c3)ccc2[nH]1` [Example M54.13, N-benzyl-2-(((2S)-2-(5-((2-((2S)-1-((2R)-tetrahydro-2-furanylcarbonyl)-2-pyrrolidinyl)-1H-benzimidazol-5-yl)ethynyl)-1H-benzimidazol-2-yl)-1-pyrrolidinyl)carbonyl)aniline]: the EC50 lay in the range of 100 to 999 nM.

With `O=C(CCOc1ccccc1)N1CCC[C@H]1c1nc2ccc(C#Cc3ccc4[nH]c([C@@H]5CCCN5C(=O)[C@H]5CCCO5)nc4c3)cc2[nH]1` [Example M54.15, 5-((2-((2S)-1-(3-phenoxypropanoyl)-2-pyrrolidinyl)-1H-benzimidazol-6-yl)ethynyl)-2-((2S)-1-((2R)-tetrahydro-2-furanylcarbonyl)-2-pyrrolidinyl)-1H-benzimidazole], the EC50 lay within 4.57 to 99 nM. Still for that read-out and setting: as for `CC(=O)N1CCC[C@H]1c1nc2ccc(C#Cc3ccc4[nH]c([C@@H]5CCCN5C(=O)Cc5ccccc5)nc4c3)cc2[nH]1` [Example M54.16, 5-((2-((2S)-1-acetyl-2-pyrrolidinyl)-1H-benzimidazol-6-yl)ethynyl)-2-((2S)-1-(phenylacetyl)-2-pyrrolidinyl)-1H-benzimidazole], the figure is 4.57 to 99 nM; as for `COc1cccc(CC(=O)N2CCC[C@H]2c2nc3cc(C#Cc4ccc5nc([C@@H]6CCCN6C(C)=O)[nH]c5c4)ccc3[nH]2)c1` [Example M54.17, 5-((2-((2S)-1-acetyl-2-pyrrolidinyl)-1H-benzimidazol-6-yl)ethynyl)-2-((2S)-1-((3-methoxyphenyl)acetyl)-2-pyrrolidinyl)-1H-benzimidazole], 4.57 to 99 nM; as for `CC(=O)N1CCC[C@H]1c1nc2ccc(C#Cc3ccc4[nH]c([C@@H]5CCCN5C(=O)c5ccccc5)nc4c3)cc2[nH]1` [Example M54.18, 5-((2-((2S)-1-acetyl-2-pyrrolidinyl)-1H-benzimidazol-6-yl)ethynyl)-2-((2S)-1-benzoyl-2-pyrrolidinyl)-1H-benzimidazole], 4.57 to 99 nM. In the case of `CCc1ccccc1C(=O)N1CCC[C@H]1c1nc2cc(C#Cc3ccc4nc([C@@H]5CCCN5C(C)=O)[nH]c4c3)ccc2[nH]1` [Example M54.19, 5-((2-((2S)-1-acetyl-2-pyrrolidinyl)-1H-benzimidazol-6-yl)ethynyl)-2-((2S)-1-(2-ethylbenzoyl)-2-pyrrolidinyl)-1H-benzimidazole], the EC50 fell in the range of 100 to 999 nM. Same read-out and setting: as for `CC(=O)N1CCC[C@H]1c1nc2ccc(C#Cc3ccc4[nH]c([C@@H]5CCCN5C(=O)Cc5cccnc5)nc4c3)cc2[nH]1` [Example M54.21, 5-((2-((2S)-1-acetyl-2-pyrrolidinyl)-1H-benzimidazol-6-yl)ethynyl)-2-((2S)-1-(3-pyridinylacetyl)-2-pyrrolidinyl)-1H-benzimidazole], the figure is 4.57 to 99 nM; as for `CC(=O)N1CCC[C@H]1c1nc2ccc(C#Cc3ccc4[nH]c([C@@H]5CCCN5C(=O)c5cccnc5)nc4c3)cc2[nH]1` [Example M54.22, 5-((2-((2S)-1-acetyl-2-pyrrolidinyl)-1H-benzimidazol-6-yl)ethynyl)-2-((2S)-1-(3-pyridinylcarbonyl)-2-pyrrolidinyl)-1H-benzimidazole], 100 to 999 nM; as for `CC(=O)N1CCC[C@H]1c1nc2ccc(C#Cc3ccc4[nH]c([C@@H]5CCCN5C(=O)Cc5cccs5)nc4c3)cc2[nH]1` [Example M54.23, 5-((2-((2S)-1-acetyl-2-pyrrolidinyl)-1H-benzimidazol-6-yl)ethynyl)-2-((2S)-1-(2-thienylacetyl)-2-pyrrolidinyl)-1H-benzimidazole], 4.57 to 99 nM. Still for that read-out and setting: the same measure for `CC(=O)N1CCC[C@H]1c1nc2ccc(C#Cc3ccc4[nH]c([C@@H]5CCCN5C(=O)c5cccs5)nc4c3)cc2[nH]1` [Example M54.24, 5-((2-((2S)-1-acetyl-2-pyrrolidinyl)-1H-benzimidazol-6-yl)ethynyl)-2-((2S)-1-(2-thienylcarbonyl)-2-pyrrolidinyl)-1H-benzimidazole]: 4.57 to 99 nM. For the compound `CC(=O)N1CCC[C@H]1c1nc2ccc(C#Cc3ccc4[nH]c([C@@H]5CCCN5C(=O)[C@H]5CCCO5)nc4c3)cc2[nH]1` [Example M54.25, 5-((2-((2S)-1-acetyl-2-pyrrolidinyl)-1H-benzimidazol-6-yl)ethynyl)-2-((2S)-1-((2R)-tetrahydro-2-furanylcarbonyl)-2-pyrrolidinyl)-1H-benzimidazole], the concentration giving a half-maximal response (EC50) lay in the range of 100 to 999 nM.

Regarding `CC(=O)N1CCC[C@H]1c1nc2cc(C#Cc3ccc4[nH]c([C@@H]5CCCN5C(=O)OCc5ccccc5)nc4c3)ccc2[nH]1` [Example M54.26, benzyl (2S)-2-(5-((2-((2S)-1-acetyl-2-pyrrolidinyl)-1H-benzimidazol-5-yl)ethynyl)-1H-benzimidazol-2-yl)-1-pyrrolidine-carboxylate], the EC50 fell in the range of 4.57 to 99 nM.

As for `CC(=O)N1CCC[C@H]1c1nc2ccc(C#Cc3ccc4[nH]c([C@@H]5CCCN5C(=O)[C@@H]5CCCN5C)nc4c3)cc2[nH]1` [Example M54.27, 5-((2-((2S)-1-acetyl-2-pyrrolidinyl)-1H-benzimidazol-6-yl)ethynyl)-2-((2S)-1-(1-methyl-L-prolyl)-2-pyrrolidinyl)-1H-benzimidazole], the concentration for a half-maximal effect (EC50) is 1000 to 10000 nM. Still for that read-out and setting: the same measure for `CC(=O)N1CCC[C@H]1c1nc2cc(C#Cc3ccc4nc([C@@H]5CCCN5C(C)=O)[nH]c4c3)ccc2[nH]1` [Example M54.28, 2-((2S)-1-acetyl-2-pyrrolidinyl)-5-((2-((2S)-1-acetyl-2-pyrrolidinyl)-1H-benzimidazol-6-yl)ethynyl)-1H-benzimidazole]: 100 to 999 nM; for `CCC(=O)N1CCC[C@H]1c1nc2cc(C#Cc3ccc4nc([C@@H]5CCCN5C(C)=O)[nH]c4c3)ccc2[nH]1` [Example M54.29, 5-((2-((2S)-1-acetyl-2-pyrrolidinyl)-1H-benzimidazol-6-yl)ethynyl)-2-((2S)-1-propionyl-2-pyrrolidinyl)-1H-benzimidazole]: 100 to 999 nM. On to `CC(=O)N1CCC[C@H]1c1nc2ccc(C#Cc3ccc4[nH]c([C@@H]5CCCN5C(=O)C5CC5)nc4c3)cc2[nH]1` [Example M54.30, 5-((2-((2S)-1-acetyl-2-pyrrolidinyl)-1H-benzimidazol-6-yl)ethynyl)-2-((2S)-1-(cyclopropyl-carbonyl)-2-pyrrolidinyl)-1H-benzimidazole], for which the EC50 was in the range of 100 to 999 nM. Regarding `CC(=O)N1CCC[C@H]1c1nc2ccc(C#Cc3ccc4[nH]c([C@@H]5CCCN5C(=O)C5CCC5)nc4c3)cc2[nH]1` [Example M54.31, 5-((2-((2S)-1-acetyl-2-pyrrolidinyl)-1H-benzimidazol-6-yl)ethynyl)-2-((2S)-1-(cyclobutyl-carbonyl)-2-pyrrolidinyl)-1H-benzimidazole], the 50% effective concentration (EC50) was 4.57 to 99 nM. With `CC(=O)N1CCC[C@H]1c1nc2ccc(C#Cc3ccc4[nH]c([C@@H]5CCCN5C(=O)CC5CC5)nc4c3)cc2[nH]1` [Example M54.32, 5-((2-((2S)-1-acetyl-2-pyrrolidinyl)-1H-benzimidazol-6-yl)ethynyl)-2-((2S)-1-(cyclopropyl-acetyl)-2-pyrrolidinyl)-1H-benzimidazole], the EC50 was 4.57 to 99 nM.

As for `CC(=O)N1CCC[C@H]1c1nc2ccc(C#Cc3ccc4[nH]c([C@@H]5CCCN5C(=O)N5CCOCC5)nc4c3)cc2[nH]1` [Example M54.33, 5-((2-((2S)-1-acetyl-2-pyrrolidinyl)-1H-benzimidazol-6-yl)ethynyl)-2-((2S)-1-(4-morpholinyl-carbonyl)-2-pyrrolidinyl)-1H-benzimidazole], the 50% effective concentration (EC50) lay within 4.57 to 99 nM. Take `CC(=O)N1CCC[C@H]1c1nc2ccc(C#Cc3ccc4[nH]c([C@@H]5CCCN5C(=O)N5CCN(C)CC5)nc4c3)cc2[nH]1` [Example M55, 5-((2-((2S)-1-acetyl-2-pyrrolidinyl)-1H-benzimidazol-6-yl)ethynyl)-2-((2S)-1-((4-methyl-1-piperazinyl)carbonyl)-2-pyrrolidinyl)-1H-benzimidazole]: the EC50 was in the range of 100 to 999 nM. Still for that read-out and setting: as for `CC(=O)N1CCC[C@H]1c1nc2cc(C#Cc3ccc4[nH]c([C@@H]5CCCN5C(=O)[C@@H](c5ccccc5)N(C)C)nc4c3)ccc2[nH]1` [Example M56, (1R)-2-((2S)-2-(5-((2-((2S)-1-acetyl-2-pyrrolidinyl)-1H-benzimidazol-5-yl)ethynyl)-1H-benzimidazol-2-yl)-1-pyrrolidinyl)-N,N-dimethyl-2-oxo-1-phenyl-ethanamine], the figure is less than 4.57 nM. As for `O=C(Cc1ccccc1)N1CCC[C@H]1c1nc2cc(C#CC#Cc3ccc4[nH]c([C@@H]5CCCN5C(=O)Cc5ccccc5)nc4c3)ccc2[nH]1` [Example M57, 5,5′-(1,3-butadiyne-1,4-diyl)bis(2-((2S)-1-(phenylacetyl)-2-pyrrolidinyl)-1H-benzimidazole)], the EC50 is less than 4.57 nM.
